# In US20230351587A1, “METHODS AND SYSTEMS FOR PREDICTING NEURODEGENERATIVE DISEASE STATE” (New York Stem Cell Foundation, Inc., priority 2020, published 2023):
# System: healthy, LRRK2, and sporadic PD cells
# Assay: Relative distance between treated cell groups and 0.16% DMSO control (morphological profiles)
# Type: cell-based, human
# Conditions: vs 0.16% DMSO; tile embeddings, single cell embeddings and feature vector models; three increasing doses; FIGS. 13A-13C
# Description: In this example, the same automated platform as described above in Examples 1 and 2 was implemented to morphologically profile large collections of cells that were treated using any of a number of perturbations. Example perturbations include bafilomycin, carbonyl cyanide m-chlorophenyl hydrazone (CCCP), MG312, rotenone, valinomycin as well as control groups (untreated and 0.16% DMSO). Specifically, healthy or PD cells of known subtype (e.g., LRKK2 subtype or sporadic subtype) were cultured in vitro and treated with varying doses of the perturbations. For example, for bafilomycin, treatments included 15.63 nM, 31.25 nM, and 62.5 nM bafilomycin. For CCCP, the treatments included 390.5 nM, 781 nM, and 1562 nM. For MG312, the treatments included 234.38 nM, 468.75 nM, and 937.5 nM. For rotenone, the treatments included 7.81 nM, 15.63 nM, and 31.25 nM. For valinomycin, the treatments included 3.91 nM, 7.81 nM, and 15.63 nM.
# Following in vitro treatment of healthy cells and PD subtype cells using the aforementioned concentrations of perturbagens, the cells were imaged using the automated imaging platform and subsequently analyzed using predictive models. In particular, three predictive models were implemented: 1) predictive model including tile embeddings, 2) predictive model including single cell embeddings, and 3) predictive model including extracted features (e.g., CellProfiler features). […]
compound,measurement,value
"CO/C1=C\C(C)=C\[C@@H](C)[C@@H](O)[C@@H](C)C/C(C)=C/C=C/[C@H](OC)[C@@H]([C@@H](C)[C@@H](O)[C@H](C)[C@@]2(O)C[C@@H](O)[C@H](C)[C@@H](C(C)C)O2)OC1=O [Bafilomycin, bafilomycin]",relative distance between treated cell groups in comparison to controls,increase in distance in response to increasing dose
